The results in this text go back to US20240208992A1, “MACROCYCLES AS CFTR MODULATORS” (Idorsia Pharmaceuticals Ltd, priority 2021, published 2024).

Usually pEC50 stands for −log10 of the EC50, conventionally taken in molar units. Usually Emax stands for the maximal effect, on the per cent scale that the assay sets.

pEC50: −log10 of the molar value.

For the test, the target named is human F508del-CFTR (Homo sapiens, UniProt P13569, DEL508-508). Description: F508del-CFTR cell surface expression (corrector activity), DiscoveRx ß-galactosidase complementation chemiluminescence assay in recombinant U2OS cell line.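 On all read-outs here: U2OS cells co-expressing ProLink-tagged F508del-CFTR and a membrane-anchored enzyme acceptor, where more surface CFTR restores β-galactosidase activity measured by chemiluminescence.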 The note with it: for pEC50: EC50, F508del-CFTR cell surface expression, U2OS cells, 16h compound incubation, geomean values; for Emax: U2OS, in relation to Emax of corrector lumacaftor (=100%), arithmetic mean values.
human F508del-CFTR, sequence (P13569 with tags, fused parts or gaps DEL508-508): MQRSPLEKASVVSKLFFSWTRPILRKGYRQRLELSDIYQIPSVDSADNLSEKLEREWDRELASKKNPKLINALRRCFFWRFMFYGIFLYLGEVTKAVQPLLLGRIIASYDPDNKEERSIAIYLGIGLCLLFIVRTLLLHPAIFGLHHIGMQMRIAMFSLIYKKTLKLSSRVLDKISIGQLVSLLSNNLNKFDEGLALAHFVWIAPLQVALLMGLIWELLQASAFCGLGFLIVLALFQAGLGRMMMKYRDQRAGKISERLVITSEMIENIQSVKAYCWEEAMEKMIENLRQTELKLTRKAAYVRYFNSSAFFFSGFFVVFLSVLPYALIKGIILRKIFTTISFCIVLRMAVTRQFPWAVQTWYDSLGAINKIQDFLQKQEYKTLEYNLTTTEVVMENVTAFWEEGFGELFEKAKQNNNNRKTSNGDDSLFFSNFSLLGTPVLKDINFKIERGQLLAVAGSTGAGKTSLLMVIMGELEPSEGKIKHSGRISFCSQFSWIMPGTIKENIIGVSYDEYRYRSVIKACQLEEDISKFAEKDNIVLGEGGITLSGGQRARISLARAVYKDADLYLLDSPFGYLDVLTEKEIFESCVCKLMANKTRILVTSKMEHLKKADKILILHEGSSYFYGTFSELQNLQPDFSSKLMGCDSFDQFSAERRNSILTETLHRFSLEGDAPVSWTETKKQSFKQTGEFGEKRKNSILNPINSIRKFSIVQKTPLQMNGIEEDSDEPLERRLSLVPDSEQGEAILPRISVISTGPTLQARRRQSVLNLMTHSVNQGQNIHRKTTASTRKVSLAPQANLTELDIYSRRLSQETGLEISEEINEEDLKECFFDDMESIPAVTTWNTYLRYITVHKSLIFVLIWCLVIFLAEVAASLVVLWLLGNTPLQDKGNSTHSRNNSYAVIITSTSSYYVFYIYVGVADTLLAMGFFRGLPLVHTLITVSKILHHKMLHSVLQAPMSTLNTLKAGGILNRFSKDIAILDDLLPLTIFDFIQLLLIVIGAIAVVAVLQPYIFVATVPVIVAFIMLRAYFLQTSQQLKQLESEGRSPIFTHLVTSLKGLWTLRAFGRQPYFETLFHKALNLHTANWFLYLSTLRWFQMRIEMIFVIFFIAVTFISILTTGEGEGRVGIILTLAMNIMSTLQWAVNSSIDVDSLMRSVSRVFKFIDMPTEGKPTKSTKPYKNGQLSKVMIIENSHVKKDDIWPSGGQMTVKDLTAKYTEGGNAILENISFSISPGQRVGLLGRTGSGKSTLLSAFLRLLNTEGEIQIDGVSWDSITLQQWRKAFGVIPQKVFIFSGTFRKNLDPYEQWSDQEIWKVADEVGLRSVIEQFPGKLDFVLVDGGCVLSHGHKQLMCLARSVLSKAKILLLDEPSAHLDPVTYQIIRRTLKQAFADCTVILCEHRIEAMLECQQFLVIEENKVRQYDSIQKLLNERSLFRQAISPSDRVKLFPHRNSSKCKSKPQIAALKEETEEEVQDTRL

Consider `Cc1cc2ccc3c(c2o1)C(=O)N[C@H](C(=O)NCCc1noc(C2CC2)n1)CC(=O)N(C)[C@@H](CC(C)C)C(=O)N(C)C1(CC1)C(=O)N[C@H](Cc1ccccc1)CO3` [Example 553, (8R,14S,18S)-8-benzyl-N-(2-(5-cyclopropyl-1,2,4-oxadiazol-3-yl)ethyl)-14-isobutyl-2,12,15-trimethyl-10,13,16,20-tetraoxo-7,8,9,10,13,14,15,16,17,18,19,20-dodecahydro-12H-spiro[benzofuro[7,6-p][1]oxa[4,7,10,14]tetraazacycloheptadecine-11,1′-cyclopropane]-18-carboxamide], for which the pEC50 was 6.54 and the maximal effect (Emax) amounted to 304%.
For `Cc1cc2ccc3c(c2o1)C(=O)N[C@H](C(=O)NCCc1nc(C2CC2)no1)CC(=O)N(C)[C@@H](CC(C)C)C(=O)N(C)C1(CC1)C(=O)N[C@H](Cc1ccccc1)CO3` [Example 554, (8R,14S,18S)-8-benzyl-N-(2-(3-cyclopropyl-1,2,4-oxadiazol-5-yl)ethyl)-14-isobutyl-2,12,15-trimethyl-10,13,16,20-tetraoxo-7,8,9,10,13,14,15,16,17,18,19,20-dodecahydro-12H-spiro[benzofuro[7,6-p][1]oxa[4,7,10,14]tetraazacycloheptadecine-11,1′-cyclopropane]-18-carboxamide], in that order: 6.49 and 310%.
The matching figures for `COc1cccc(CCNC(=O)[C@@H]2CC(=O)N(C)[C@@H](CC(C)C)C(=O)N(C)C3(CC3)C(=O)N[C@H](Cc3ccccc3)COc3ncc4ccccc4c3C(=O)N2)c1` [Example 555, (3′S,7′S,13′R)-13′-benzyl-7′-isobutyl-N-(3-methoxyphenethyl)-6′,9′-dimethyl-1′,5′,8′,11′-tetraoxo-2′,3′,4′,5′,6′,7′,8′,9′,11′,12′,13′,14′-dodecahydro-1′H-spiro[cyclopropane-1,10′-[1]oxa[4,7,10,14]tetraazacycloheptadecino[17,16-c]isoquinoline]-3′-carboxamide]: 6.66 and 309%.
`CC(C)C[C@H]1C(=O)N(C)C2(CC2)C(=O)N[C@H](Cc2ccccc2)COc2ncc3ccccc3c2C(=O)N[C@H](C(=O)NCCc2cc(C3CC3)no2)CC(=O)N1C` [Example 556, (3′S,7′S,13′R)-13′-benzyl-N-(2-(3-cyclopropylisoxazol-5-yl)ethyl)-7′-isobutyl-6′,9′-dimethyl-1′,5′,8′,11′-tetraoxo-2′,3′,4′,5′,6′,7′,8′,9′,11′,12′,13′,14′-dodecahydro-1′H-spiro[cyclopropane-1,10′-[1]oxa[4,7,10,14]tetraazacycloheptadecino[17,16-c]isoquinoline]-3′-carboxamide]: the pEC50 was 6.49 and the Emax was determined as 322%.
The matching figures for `COc1nccc2c1C(=O)N[C@H](C(=O)NCCc1noc(C3CC3)n1)CC(=O)N(C)[C@@H](CC(C)C)C(=O)N(C)[C@@H](CC1CCC(F)(F)CC1)C(=O)N[C@H](Cc1ccccc1)CO2` [Example 557, (3R,6S,9S,13S)-3-benzyl-N-(2-(5-cyclopropyl-1,2,4-oxadiazol-3-yl)ethyl)-6-((4,4-difluorocyclohexyl)methyl)-9-isobutyl-16-methoxy-7,10-dimethyl-5,8,11,15-tetraoxo-2,3,4,5,6,7,8,9,10,11,12,13,14,15-tetradecahydropyrido[3,4-p][1]oxa[4,7,10,14]tetraazacycloheptadecine-13-carboxamide]: 6.23 and 253%.
For `COc1nccc2c1C(=O)N[C@H](C(=O)NCCc1noc(C3CC3)n1)CC(=O)N(C)[C@@H](CC(C)C)C(=O)N(C)[C@H](CC1CCC(F)(F)CC1)C(=O)N[C@H](Cc1ccccc1)CO2` [Example 558, (3R,6R,9S,13S)-3-benzyl-N-(2-(5-cyclopropyl-1,2,4-oxadiazol-3-yl)ethyl)-6-((4,4-difluorocyclohexyl)methyl)-9-isobutyl-16-methoxy-7,10-dimethyl-5,8,11,15-tetraoxo-2,3,4,5,6,7,8,9,10,11,12,13,14,15-tetradecahydropyrido[3,4-p][1]oxa[4,7,10,14]tetraazacycloheptadecine-13-carboxamide], in that order: 6.78 and 355%.
As to `CC(C)C[C@H]1C(=O)N2CCCC[C@@H]2C(=O)N[C@H](Cc2ccccc2)COc2cnc3ccccc3c2C(=O)N[C@H](C(=O)NCCc2cc(C(F)(F)F)no2)CC(=O)N1C` [Example 559, (9S,13S,19aR,22R)-22-benzyl-13-isobutyl-12-methyl-7,11,14,20-tetraoxo-N-(2-(3-(trifluoromethyl)isoxazol-5-yl)ethyl)-7,8,9,10,11,12,13,14,17,18,19,19a,20,21,22,23-hexadecahydro-16H-pyrido[2′,1′:6,7][1]oxa[4,7,10,14]tetraazacycloheptadecino[17,16-c]quinoline-9-carboxamide], the negative-log EC50 (pEC50) was 6.81 and the Emax worked out at 236%.
With `CC(C)C[C@H]1C(=O)N2CCCC[C@@H]2C(=O)N[C@H](Cc2ccccc2)COc2cnc3ccc(F)cc3c2C(=O)N[C@H](C(=O)NCCc2cc(C(F)(F)F)no2)CC(=O)N1C` [Example 560, (9S,13S,19aR,22R)-22-benzyl-5-fluoro-13-isobutyl-12-methyl-7,11,14,20-tetraoxo-N-(2-(3-(trifluoromethyl)isoxazol-5-yl)ethyl)-7,8,9,10,11,12,13,14,17,18,19,19a,20,21,22,23-hexadecahydro-16H-pyrido[2′,1′:6,7][1]oxa[4,7,10,14]tetraazacycloheptadecino[17,16-c]quinoline-9-carboxamide], the pEC50 was 6.94 and the maximum response (Emax) turned out to be 249%.
For `Cc1cc2ccc3c(c2o1)C(=O)N[C@H](C(=O)NCCc1noc(C2CC2)n1)CC(=O)N(C)[C@@H](CC(C)C)C(=O)N(C)CC(=O)N[C@H](Cc1ccccc1)CO3` [Example 561, (8R,14S,18S)-8-benzyl-N-(2-(5-cyclopropyl-1,2,4-oxadiazol-3-yl)ethyl)-14-isobutyl-2,12,15-trimethyl-10,13,16,20-tetraoxo-7,8,9,10,11,12,13,14,15,16,17,18,19,20-tetradecahydrobenzofuro[7,6-p][1]oxa[4,7,10,14]tetraazacycloheptadecine-18-carboxamide], in that order: 6.36 and 215%.
Turning to `Cc1cc2ccc3c(c2o1)C(=O)N[C@H](C(=O)NCCc1nc(C2CC2)no1)CC(=O)N(C)[C@@H](CC(C)C)C(=O)N(C)CC(=O)N[C@H](Cc1ccccc1)CO3` [Example 562, (8R,14S,18S)-8-benzyl-N-(2-(3-cyclopropyl-1,2,4-oxadiazol-5-yl)ethyl)-14-isobutyl-2,12,15-trimethyl-10,13,16,20-tetraoxo-7,8,9,10,11,12,13,14,15,16,17,18,19,20-tetradecahydrobenzofuro[7,6-p][1]oxa[4,7,10,14]tetraazacycloheptadecine-18-carboxamide], the negative-log EC50 (pEC50) was 6.35 and the maximal response (Emax) was 282%.
For `CC(C)C[C@H]1C(=O)N2CCCC[C@@H]2C(=O)N[C@H](Cc2ccccc2)COc2cnc3cccc(F)c3c2C(=O)N[C@H](C(=O)NCCc2noc(C3CC3)n2)CC(=O)N1C` [Example 563, (9S,13S,19aR,22R)-22-benzyl-N-(2-(5-cyclopropyl-1,2,4-oxadiazol-3-yl)ethyl)-6-fluoro-13-isobutyl-12-methyl-7,11,14,20-tetraoxo-7,8,9,10,11,12,13,14,17,18,19,19a,20,21,22,23-hexadecahydro-16H-pyrido[2′,11:6,7][1]oxa[4,7,10,14]tetraazacycloheptadecino[17,16-c]quinoline-9-carboxamide], in that order: 6.90 and 330%.
`Cc1cc(CCNC(=O)[C@@H]2CC(=O)N(C)[C@@H](CC(C)C)C(=O)N(C)[C@H](COCc3ccccc3)C(=O)N[C@H](Cc3ccccc3)COc3cnc4ccccc4c3C(=O)N2)on1` [Example 564, (3S,7S,10R,13R)-13-benzyl-10-((benzyloxy)methyl)-7-isobutyl-6,9-dimethyl-N-(2-(3-methylisoxazol-5-yl)ethyl)-1,5,8,11-tetraoxo-1,2,3,4,5,6,7,8,9,10,11,12,13,14-tetradecahydro-[1]oxa[4,7,10,14]tetraazacycloheptadecino[17,16-c]quinoline-3-carboxamide]: the negative logarithm of the EC50 (pEC50) is 7.31 and the maximal response (Emax) was 298%.
Take `COc1nc(C)cc2c1C(=O)N[C@H](C(=O)NCCc1cc(C3CC3)on1)CC(=O)N(C)[C@@H](CC(C)C)C(=O)N1CCCC[C@@H]1C(=O)N[C@H](Cc1ccccc1)CO2` [Example 565, (7S,11S,17aR,20R)-20-benzyl-N-(2-(5-cyclopropylisoxazol-3-yl)ethyl)-11-isobutyl-4-methoxy-2,10-dimethyl-5,9,12,18-tetraoxo-5,6,7,8,9,10,11,12,15,16,17,17a,18,19,20,21-hexadecahydro-14H-dipyrido[2,1-f:3′,4′-p][1]oxa[4,7,10,14]tetraazacycloheptadecine-7-carboxamide]: the pEC50 was 6.47 and the Emax was found to be 254%.
Turning to `COCC[C@@H]1C(=O)N[C@H](Cc2ccccc2)COc2cnc3ccccc3c2C(=O)N[C@H](C(=O)NCCc2cc(C)no2)CC(=O)N(C)[C@@H](CC(C)C)C(=O)N1C` [Example 566, (3S,7S,10R,13R)-13-benzyl-7-isobutyl-10-(2-methoxyethyl)-6,9-dimethyl-N-(2-(3-methylisoxazol-5-yl)ethyl)-1,5,8,11-tetraoxo-1,2,3,4,5,6,7,8,9,10,11,12,13,14-tetradecahydro-[1]oxa[4,7,10,14]tetraazacycloheptadecino[17,16-c]quinoline-3-carboxamide], the pEC50 is 6.15 and the Emax was found to be 278%.
